Reference: US11161855B2, “Tricyclic fused thiophene derivatives as JAK inhibitors” (Incyte Corporation, priority 2012, dated 2021)

Legend:
Type in all cases: biochemical
[1] = target: human JAK1 (a.a. 837-1142) (Homo sapiens, UniProt P23458); assay: In vitro JAK kinase assay (HTRF), JAK1; settings: 1 mM ATP
Experimental: (§1) Compounds herein were tested for inhibitory activity of JAK targets according to the following in vitro assay described in Park et al., Analytical Biochemistry 1999, 269, 94-104. The catalytic domains of human JAK1 (a.a. 837-1142), JAK2 (a.a. 828-1132) and JAK3 (a.a. 781-1124) were expressed using baculovirus in insect cells and purified. The catalytic activity of JAK1, JAK2 or JAK3 was assayed by measuring the phosphorylation of a biotinylated peptide. The phosphorylated peptide was detected by homogenous time resolved fluorescence (HTRF). IC50s of compounds were measured for each kinase in the 40 μL reactions that contain the enzyme, ATP and 500 nM peptide in 50 mM Tris (pH 7.8) buffer with 100 mM NaCl, 5 mM DTT, and 0.1 mg/mL (0.01%) BSA. For the 1 mM IC50 measurements, ATP concentration in the reactions was 1 mM. Reactions were carried out at room temperature for 1 hour and then stopped with 20 μL 45 mM EDTA, 300 nM SA-APC, 6 nM Eu-Py20 in assay buffer (Perkin Elmer, Boston, Mass.). Binding to the Europium labeled antibody took place for 40 minutes and HTRF signal was measured on a PHERA star plate reader (BMG, Cary, N.C.). The Example compounds were each tested in the Example A assay (see Table 1 for data for the compounds of the examples as tested by the assay of Example A at 1 mM ATP).

[2] = system: human JAK1 (a.a. 837-1142); assay: In vitro JAK kinase assay (HTRF), JAK1; settings: ratio of IC50s, 1 mM ATP
Experimental: as §1

[3] = target: human JAK2 (a.a. 828-1132) (Homo sapiens (Human), UniProt O60674); assay: In vitro JAK kinase assay (HTRF), JAK2; parameters: key to JAK2 IC50 (nM): + indicates an IC50 of ≤100 nM; ++ indicates an IC50 of ≤1000 nM; +++ indicates an IC50 of ≤2000 nM; ++++ indicates an IC50 of >2000 nM; +++++ indicates that the IC50 was greater than the highest concentration tested; settings: 1 mM ATP
Experimental: as §1

Sequence of human JAK2 (a.a. 828-1132) (O60674 828-1132): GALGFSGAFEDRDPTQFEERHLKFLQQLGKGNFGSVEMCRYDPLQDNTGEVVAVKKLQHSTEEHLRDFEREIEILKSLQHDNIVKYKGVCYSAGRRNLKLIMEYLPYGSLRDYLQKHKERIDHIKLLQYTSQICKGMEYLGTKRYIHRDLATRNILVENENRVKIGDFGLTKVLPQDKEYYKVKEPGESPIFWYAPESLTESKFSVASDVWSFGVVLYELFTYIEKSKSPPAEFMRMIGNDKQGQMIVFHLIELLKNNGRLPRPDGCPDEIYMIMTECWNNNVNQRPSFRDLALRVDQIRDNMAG

Row | SMILES | JAK2/JAK1 [2] | IC50 [1] | IC50 [3] | JAK2 IC50 (nM) [3]
1 | C[C@@H](O)c1nc2cnc3ccsc3c2n1[C@H]1CC[C@H](CC#N)[C@H](O)C1 (single isomer, unassigned) [36 (first peak)] | >10 | ≤ 0.1 µM | > 2 µM | –
2 | C[C@@H](O)c1nc2cnc3ccsc3c2n1[C@@H]1CC[C@@H](CC#N)[C@@H](O)C1 (single isomer, unassigned) [36 (second peak)] | >10 | ≤ 0.1 µM | ≤ 1 µM | –
3 | C[C@@H](O)c1nc2cnc3ccsc3c2n1[C@H]1CC[C@H](CC#N)[C@@H](O)C1 (single isomer, unassigned) [37 (first peak)] | >10 | ≤ 1 µM | – | +++++
4 | C[C@@H](O)c1nc2cnc3ccsc3c2n1[C@@H]1CC[C@@H](CC#N)[C@H](O)C1 (single isomer, unassigned) [37 (second peak)] | >10 | ≤ 0.1 µM | ≤ 1 µM | –
5 | CCc1nc2cnc3ccsc3c2n1[C@H]1CC[C@H](CC#N)[C@@H](O)C1 (single isomer, unassigned) [40 (first peak)] | >10 | ≤ 0.1 µM | ≤ 1 µM | –
6 | CCc1nc2cnc3ccsc3c2n1[C@@H]1CC[C@@H](CC#N)[C@H](O)C1 (single isomer, unassigned) [40 (second peak)] | – | > 2 µM | – | +++++
7 | Cc1nc2cnc3ccsc3c2n1[C@@H]1CC[C@@H](CC#N)[C@H](O)C1 (single isomer, unassigned) [41 (second peak)] | – | > 2 µM | – | +++++
8 | C[C@@H](O)c1nc2cnc3ccsc3c2n1[C@H]1CCCN(C(=O)CCC(F)(F)F)C1 [Example 52, (1R)-1-{1-[(3S)-1-(4,4,4-Trifluorobutanoyl)piperidin-3-yl]-1H-imidazo[4,5-d]thieno[3,2-b]pyridin-2-yl}ethanol] | >10 | – | – | +++++
9 | N#CCc1nc2cnc3ccsc3c2n1[C@H]1CC[C@H](CC#N)OC1 [Example 73, {(2R,5S)-5-[2-(Cyanomethyl)-1H-imidazo[4,5-d]thieno[3,2-b]pyridin-1-yl]tetrahydro-2H-pyran-2-yl}acetonitrile] | >10 | – | – | –
10 | N#CCc1nc2cnc3ccsc3c2n1[C@H]1CC[C@@H](CC#N)OC1 [Example 74, {(2S,5S)-5-[2-(Cyanomethyl)-1H-imidazo[4,5-d]thieno[3,2-b]pyridin-1-yl]tetrahydro-2H-pyran-2-yl}acetonitrile] | >10 | – | – | –
11 | C[C@@H](O)c1nc2cnc3ccsc3c2n1[C@H]1CC[C@H](CNS(C)(=O)=O)OC1 [Example 75, N-[((2R,5S)-5-{2-[(1R)-1-Hydroxyethyl]-1H-imidazo[4,5-d]thieno[3,2-b]pyridin-1-yl}tetrahydro-2H-pyran-2-yl)methyl]methanesulfonamide] | >10 | – | – | –
12 | CC(C)OC(=O)NC[C@H]1CC[C@H](n2c([C@@H](C)O)nc3cnc4ccsc4c32)CO1 [Example 76, Isopropyl [((2R,5S)-5-{2-[(1R)-1-hydroxyethyl]-1H-imidazo[4,5-d]thieno[3,2-b]pyridin-1-yl}tetrahydro-2H-pyran-2-yl)methyl]carbamate] | >10 | – | – | –

Second part, led by results:

Row | JAK2/JAK1 [2] | SMILES | IC50 [1] | IC50 [3] | JAK2 IC50 (nM) [3]
13 | >10 | COC(=O)NC[C@H]1CC[C@H](n2c([C@@H](C)O)nc3cnc4ccsc4c32)CC1 [Example 78, Methyl [(trans-4-{2-[(1R)-1-hydroxyethyl]-1H-imidazo[4,5-d]thieno[3,2-b]pyridin-1-yl}cyclohexyl)methyl]carbamate] | – | – | –
14 | >10 | CC(=O)NC[C@H]1CC[C@H](n2c([C@@H](C)O)nc3cnc4ccsc4c32)CC1 [Example 79, N-[(trans-4-{2-[(1R)-1-Hydroxyethyl]-1H-imidazo[4,5-d]thieno[3,2-b]pyridin-1-yl}cyclohexyl)methyl]acetamide] | – | – | –
15 | >10 | C[C@@H](O)c1nc2cnc3ccsc3c2n1[C@H]1CC[C@H](CNS(C)(=O)=O)CC1 [Example 80, N-[(trans-4-{2-[(1R)-1-Hydroxyethyl]-1H-imidazo[4,5-d]thieno[3,2-b]pyridin-1-yl}cyclohexyl)methyl]methanesulfonamide] | – | – | –
16 | >10 | C[C@@H](O)c1nc2cnc3ccsc3c2n1[C@H]1CC[C@H](CNC(=O)N(C)C)CC1 [Example 81, N′-[(trans-4-{2-[(1R)-1-Hydroxyethyl]-1H-imidazo[4,5-d]thieno[3,2-b]pyridin-1-yl}cyclohexyl)methyl]-N,N-dimethylurea] | – | – | –
17 | >10 | CCOC(=O)NC[C@H]1CC[C@H](n2c([C@@H](C)O)nc3cnc4ccsc4c32)CC1 [Example 82, Ethyl [(trans-4-{2-[(1R)-1-hydroxyethyl]-1H-imidazo[4,5-d]thieno[3,2-b]pyridin-1-yl}cyclohexyl)methyl]carbamate] | – | – | –
18 | >10 | CCCOC(=O)NC[C@H]1CC[C@H](n2c([C@@H](C)O)nc3cnc4ccsc4c32)CC1 [Example 83, Propyl [(trans-4-{2-[(1R)-1-hydroxyethyl]-1H-imidazo[4,5-d]thieno[3,2-b]pyridin-1-yl}cyclohexyl)methyl]carbamate] | – | – | –
19 | >10 | CC(C)OC(=O)NC[C@H]1CC[C@H](n2c([C@@H](C)O)nc3cnc4ccsc4c32)CC1 [Example 84, Isopropyl [(trans-4-{2-[(1R)-1-hydroxyethyl]-1H-imidazo[4,5-d]thieno[3,2-b]pyridin-1-yl}cyclohexyl)methyl]carbamate] | – | – | –
20 | >10 | C[C@@H](O)c1nc2cnc3ccsc3c2n1[C@H]1CC[C@H](CNC(=O)OC2CCOC2)CC1 (stereo partly drawn) [Example 85, Tetrahydrofuran-3-yl [(trans-4-{2-[(1R)-1-hydroxyethyl]-1H-imidazo[4,5-d]thieno[3,2-b]pyridin-1-yl}cyclohexyl)methyl]carbamate] | – | – | –
21 | >10 | COC(=O)NC[C@H]1CC[C@H](n2c(CC#N)nc3cnc4ccsc4c32)CC1 [Example 86, Methyl ({trans-4-[2-(cyanomethyl)-1H-imidazo[4,5-d]thieno[3,2-b]pyridin-1-yl]cyclohexyl}methyl)carbamate] | – | – | –
22 | >10 | CCOC(=O)NC[C@H]1CC[C@H](n2c(CC#N)nc3cnc4ccsc4c32)CC1 [Example 87, Ethyl ({trans-4-[2-(cyanomethyl)-1H-imidazo[4,5-d]thieno[3,2-b]pyridin-1-yl]cyclohexyl}methyl)carbamate] | – | – | –
23 | >10 | CC(C)OC(=O)NC[C@H]1CC[C@H](n2c(CC#N)nc3cnc4ccsc4c32)CC1 [Example 88, Isopropyl ({trans-4-[2-(cyanomethyl)-1H-imidazo[4,5-d]thieno[3,2-b]pyridin-1-yl]cyclohexyl}methyl)carbamate] | – | – | –
24 | >10 | CCC(=O)NC[C@H]1CC[C@H](n2c(CC#N)nc3cnc4ccsc4c32)CC1 [Example 89, N-({trans-4-[2-(Cyanomethyl)-1H-imidazo[4,5-d]thieno[3,2-b]pyridin-1-yl]cyclohexyl}methyl)propanamide] | – | – | –
25 | >10 | N#CCc1nc2cnc3ccsc3c2n1[C@H]1CC[C@H](CC#N)CC1 [Example 90, {1-[trans-4-(Cyanomethyl)cyclohexyl]-1H-imidazo[4,5-d]thieno[3,2-b]pyridin-2-yl}acetonitrile] | – | – | –
26 | >10 | N#CC[C@H]1CC[C@H](n2c(CO)nc3cnc4ccsc4c32)CO1 [Example 91, {(2R,5S)-5-[2-(Hydroxymethyl)-1H-imidazo[4,5-d]thieno[3,2-b]pyridin-1-yl]tetrahydro-2H-pyran-2-yl}acetonitrile] | – | – | –
